The values that follow are results of earlier work, collected in PMC4067310, “From Pan-Reactive KV7 Channel Opener to Subtype Selective Opener/Inhibitor by Addition of a Methyl Group” (PLoS ONE, 2014).

Residue numbers refer to the chain shown, from its start.

In one data set the target is T1, KV7.4 (Homo sapiens, UniProt P56696).
T1 construct: expressed in transfected cells; host or cells: Xenopus laevis oocytes injected with cRNA (pGEM-HE vector)
T1 sequence (P56696 1-695): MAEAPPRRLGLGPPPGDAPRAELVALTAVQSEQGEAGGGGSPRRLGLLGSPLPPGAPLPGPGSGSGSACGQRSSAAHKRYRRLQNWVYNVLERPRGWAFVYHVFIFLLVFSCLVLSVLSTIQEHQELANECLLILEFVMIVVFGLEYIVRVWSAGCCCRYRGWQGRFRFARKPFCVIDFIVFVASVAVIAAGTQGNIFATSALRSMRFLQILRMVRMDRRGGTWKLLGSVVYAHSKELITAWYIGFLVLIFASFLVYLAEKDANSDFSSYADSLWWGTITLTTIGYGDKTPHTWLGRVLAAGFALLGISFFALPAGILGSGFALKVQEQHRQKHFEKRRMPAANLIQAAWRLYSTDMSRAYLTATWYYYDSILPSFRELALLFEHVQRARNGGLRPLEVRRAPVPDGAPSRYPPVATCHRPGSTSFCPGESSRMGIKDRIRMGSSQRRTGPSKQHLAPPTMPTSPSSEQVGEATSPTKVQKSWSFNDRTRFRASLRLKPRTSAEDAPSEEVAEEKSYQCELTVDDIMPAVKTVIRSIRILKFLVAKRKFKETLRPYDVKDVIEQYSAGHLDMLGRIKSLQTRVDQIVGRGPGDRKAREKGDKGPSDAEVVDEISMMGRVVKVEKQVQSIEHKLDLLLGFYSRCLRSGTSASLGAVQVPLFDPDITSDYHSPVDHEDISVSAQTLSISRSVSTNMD
Set-up: method as in PMID 20011514. Conditions: +40 mV; cited from earlier work.

The next data set addresses T2, KV7.2-W236L (Homo sapiens, UniProt O43526, W236L).
T2 construct: expressed in transfected cells; host or cells: Xenopus laevis oocytes injected with cRNA (pGEM-HE vector)
Set-up: method as in PMID 20011514. Conditions: all activating effects lost; cited from earlier work.

The next data set deals with T3, KV7.4-W242L (Homo sapiens, UniProt P56696, W242L).
T3 construct: expressed in transfected cells; host or cells: Xenopus laevis oocytes injected with cRNA (pGEM-HE vector)
T3 sequence (P56696 1-695 W242L): T1 sequence (P56696 1-695) with W242L
Conditions: cited from earlier work.

T2 sequence (O43526 whole entry W236L): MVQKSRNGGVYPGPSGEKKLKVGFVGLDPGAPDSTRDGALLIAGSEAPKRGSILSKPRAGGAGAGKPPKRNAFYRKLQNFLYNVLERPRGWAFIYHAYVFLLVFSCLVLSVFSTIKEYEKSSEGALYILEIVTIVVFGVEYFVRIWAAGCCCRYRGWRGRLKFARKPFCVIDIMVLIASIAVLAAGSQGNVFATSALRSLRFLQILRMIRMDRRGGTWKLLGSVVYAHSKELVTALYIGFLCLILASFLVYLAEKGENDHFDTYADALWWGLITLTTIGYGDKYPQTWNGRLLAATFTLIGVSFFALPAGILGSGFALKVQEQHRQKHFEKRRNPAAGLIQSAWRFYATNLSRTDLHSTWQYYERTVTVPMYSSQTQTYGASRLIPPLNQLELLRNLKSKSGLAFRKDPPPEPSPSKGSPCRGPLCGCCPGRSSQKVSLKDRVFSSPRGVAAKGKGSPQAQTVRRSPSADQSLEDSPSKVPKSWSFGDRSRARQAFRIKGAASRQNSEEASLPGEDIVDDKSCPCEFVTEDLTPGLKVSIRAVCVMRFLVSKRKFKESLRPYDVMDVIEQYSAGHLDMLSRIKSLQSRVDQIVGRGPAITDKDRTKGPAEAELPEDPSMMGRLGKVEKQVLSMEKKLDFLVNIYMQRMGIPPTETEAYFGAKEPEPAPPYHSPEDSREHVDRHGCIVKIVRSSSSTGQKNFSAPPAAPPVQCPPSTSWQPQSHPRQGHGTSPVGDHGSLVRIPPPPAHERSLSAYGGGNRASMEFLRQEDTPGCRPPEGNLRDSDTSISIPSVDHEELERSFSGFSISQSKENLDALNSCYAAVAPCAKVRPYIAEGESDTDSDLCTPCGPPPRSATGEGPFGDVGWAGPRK

Turning to `C[C@H](NC(=O)/C=C/c1ccccc1F)c1ccc2c(c1)N(CC1CC1)CCO2` [(S)-2], at KV7.4, the “efficacy, current amplitude % of control” value is 1927 % of control. On KV7.2-W236L, the “effect on KV7.2-W236L” value was “purely inhibitory”. On KV7.4-W242L, the “effect on KV7.4-W242L” value is given as “fully insensitive”.
